Measured values taken from US6511970B1, “Prevention of ovarian cancer by administration of products that induce transforming growth factor-beta and/or apoptosis in the ovarian epithelium” (New Life Pharmaceuticals Inc., priority 1996, dated 2003).

Experiments:
[1] = tested on: ovarian and oviductal tumors; test: Two-year chemoprevention trial in the chicken; assay type: in vivo; settings: two-year mark; feed restriction (anovulatory); preliminary results
Description: A two-year prevention trial was performed in the chicken, designed to test the hypothesis that progestins confer prevention against ovarian cancer. Two thousand two year-old birds were randomized into several groups, including untreated controls, and groups receiving the progestins provera or levonorgestrel. The trial has just completed, and tumors accrued during the trial are currently being studied.

ovarian epithelial cells = test: Apoptosis in monkey ovarian surface epithelium in vivo (Apoptag-plus staining); set-up: species or system cynomolgus monkeys; settings: in diet, Triphasil-pattern human-equivalent doses, 28-day cycles for 2 years
Excerpt: Young female adult cynomolgus monkeys were fed a diet for […] that contained either no hormones, the oral combination contraceptive “[…],” the estrogenic component of “[…] estradiol) alone, or the progestin component of “[…]” (levonorgestrel) alone, each administered in the same pattern that occurs in a “[…]” regimen. Doses were scaled on the basis of caloric intake, which is the accepted way to achieve human-equivalent doses. […] This cyclic regimen was repeated every 28 days continuously for 2 years. At the completion of the two years of the study, the animals were sacrificed, and their ovaries were removed and both formalin-fixed and paraffin embedded as well as flash frozen and stored at minus 70 degrees Celsius. Five-micron ovarian sections were mounted on coated slides, and stained with the Apoptag-plus kit (Oncor, Gaithersburg, Md.), which specifically labels the 3' end of free DNA fragments in cells undergoing DNA fragmentation, a characteristic of apoptosis. After staining, cells undergoing apoptosis were easily identified by their dark brown nuclear discoloration. The ovarian surface epithelium was examined histologically to assess ovarian epithelial morphology and to determine the percentage of ovarian cells undergoing apoptosis. To calculate the percentage of ovarian epithelial cells undergoing apoptosis, both the total number of ovarian epithelial cells and the number undergoing apoptosis were counted on each five-micron ovarian section. At each step, the investigators were completely blinded with regard to which treatment group was associated with each ovary.

TGF beta-3 [2] = test: TGF beta-3 immunohistochemical staining in monkey ovarian epithelium; assay type: in vivo, cynomolgus monkeys; settings: Triphasil-pattern doses in diet
Excerpt: (§1) Young female adult cynomolgus monkeys were fed a diet for three years that contained either no hormones, the oral combination contraceptive “[…],” the estrogenic component of “[…] estradiol) alone, or the progestin component of “[…]” (levonorgestrel) alone, each administered in the same pattern that occurs in a “[…]” regimen. Doses were scaled on the basis of caloric intake, which is the accepted way to achieve human-equivalent doses. […] This cyclic regimen was repeated every 28 days continuously for 2 years. In a similar experiment, the effect of hormone treatment on expression of TGF-β3 was examined in the ovaries of primates from the trial described above. This study uses monkeys that were randomized in the study above of apoptosis in the ovarian epithelium. […] Ovarian sections from each of the monkeys were stained immunohistochemically for expression of TGF beta-3, using an anti-TGF-beta-3 monoclonal antibody. […] Two blinded observers then quantitated degree of expression of TGF-β3 by grading the intensity of staining on a scale of 1-4+ in several ovarian compartments: 1) epithelium, 2) oocytes, 3) endothelial cells, 4) granulosa cells. The staining was characterized as negative (0-2+) versus positive (3-4+). The following tables show the distribution of negative (0-2) and positive (3-4) staining among the randomized treatment groups for each separate ovarian compartment (i.e.: epithelial, oocyte cytoplasm, granulosa, and endothelial).

[3] = tested on: M-100 immortalized human ovarian epithelial cells; test: Cell death ELISA (DNA-histone complexes) in M-100 cells; assay type: cell-based; settings: 20 ng/ml, 96 hours, P<0.05
Description: Specifically, a spontaneously immortalized cell line, M-100, derived from a normal human ovarian epithelial cell culture was plated in 24 well plates at a concentration of 100,000 cells per well. […] All experiments were performed in triplicate.

TGF beta-3 [4] = test: TGF beta-3 immunohistochemical staining in monkey ovarian granulosa cells; assay type: in vivo, cynomolgus monkeys; settings: Triphasil-pattern doses in diet
Excerpt: as §1

TGF beta-3 [5] = test: TGF beta-3 immunohistochemical staining in monkey ovarian oocytes; assay type: in vivo, cynomolgus monkeys; settings: Triphasil-pattern doses in diet
Excerpt: as §1

TGF beta-3 [6] = test: TGF beta-3 immunohistochemical staining in monkey ovarian endothelial cells; assay type: in vivo, cynomolgus monkeys; settings: Triphasil-pattern doses in diet
Excerpt: as §1

[7] = serum; cited from earlier work
[8] = tested on: human ovarian epithelial cells; test: Cell death ELISA in normal human ovarian epithelial cell culture; assay type: cell-based; settings: 100 nM, 96 hours, p=0.01
Description: Example 10 addresses the effect of administration of Vitamin D on human ovarian epithelial cells. According to this example, a cell culture derived from normal ovarian epithelial cells was plated in 24 well plates at a concentration of 100,000 cells per well. After 24 hours, the wells were treated with 1,25-dihydroxyvitamin D3 at a 100 nM concentration or control medium, and allowed to incubate for 96 hours. All experiments were carried out in triplicate. After 96 hours, cell lysates were extracted from each of the wells, and the cytoplasmic fraction was normalized for cell number and analyzed for DNA-histone complexes indicative of apoptosis using a cell death ELISA (Boehringer Mannheim). A significant (300%) increase in apoptosis (p=0.01) was measured in the human ovarian epithelial cells treated with Vitamin D as compared with the controls.

TGF β3 = test: Anti-TGF β3 immunohistochemical staining of M-100 cells; assay type: cell-based, human; settings: 100 nM, 72 hours
Description: An immortalized cell line, M-100, derived from a normal human ovarian epithelial cell culture established in our laboratory was plated in 100 mm plates at a concentration of 1 million cells per plate, in the presence of either 1,25 (OH)2 D3 or the Vitamin D analogue […] at doses of each (100 nM) or control medium, and allowed to incubate for 72 hours. After 72 hours, cells were scraped from each of the plates, fixed on glass slides, and stained immunohistochemically with anti-TGF β3 antibody.

## CC(=O)O[C@]1(C(C)=O)CC[C@H]2[C@@H]3C[C@H](C)C4=CC(=O)CC[C@]4(C)[C@H]3CC[C@@]21C [provera, medroxyprogesterone acetate]
[1]
  fewer ovarian and oviductal tumors than controls: 35%

## C#C[C@]1(O)CC[C@H]2[C@@H]3CCC4=CC(=O)CC[C@@H]4[C@H]3CC[C@@]21CC [Levonorgestrel, levonorgestrel]
Ovarian epithelial cells
  Median Percent of Apoptotic Cell Counts: 24.9%
  Range Percent of Apoptotic Cell Counts: 3.5-61.8%
TGF beta-3 [2]
  Epithelial staining Negative (0-2+), number of monkeys: 0
  Epithelial staining Positive (3-4+), number of monkeys: 17
  Epithelial staining Positive (3-4+), percent of monkeys: (100%)
[3]
  increase in apoptosis as compared to controls: 100%
TGF beta-3 [4]
  Granulosa Cell staining Negative (0-2+), number of monkeys: 16
  Granulosa Cell staining Positive (3-4+), number of monkeys: 1
  Granulosa Cell staining Positive (3-4+), percent of monkeys: (6%)
TGF beta-3 [5]
  Oocyte cytoplasm staining Negative (0-2+), number of monkeys: 3
  Oocyte cytoplasm staining Positive (3-4+), number of monkeys: 14
  Oocyte cytoplasm staining Positive (3-4+), percent of monkeys: (82%)
TGF beta-3 [6]
  Endothelial staining Negative (0-2+), number of monkeys: 1
  Endothelial staining Positive (3-4+), number of monkeys: 16
  Endothelial staining Positive (3-4+), percent of monkeys: (94%)
[1]
  fewer ovarian and oviductal tumors than controls: 35%

## C=C1CC[C@H](O)C/C1=C/C=C1\CCC[C@]2(C)[C@@H]([C@H](C)CCCC(C)(C)O)CC[C@@H]12 [25-hydroxyvitamin D3]
[7]
  biological half-life (in words): several weeks

## C=C1/C(=C\C=C2/CCC[C@]3(C)[C@@H]([C@H](C)CCCC(C)(C)O)CC[C@@H]23)C[C@@H](O)C[C@@H]1O [1,25-dihydroxyvitamin D3]
[8]
  increase in apoptosis as compared with the controls: 300%
TGF β3
  TGF β3 expression as compared to controls (in words): significant increase in TGF β3 expression
[7]
  half-life: 6 to 8 h

## C#C[C@]1(O)CC[C@H]2[C@@H]3CCc4cc(O)ccc4[C@H]3CC[C@@]21C [Ethinyl Estradiol (EE), ethinyl estradiol]
Ovarian epithelial cells
  Median Percent of Apoptotic Cell Counts: 1.8%
  Range Percent of Apoptotic Cell Counts: 0.1-28.6%
Ovarian epithelial cells; listed as Ethinyl-estradiol-only
  Median Percent of Apoptotic Cell Counts: 1.8%
TGF beta-3 [2]
  Epithelial staining Negative (0-2+), number of monkeys: 19
  Epithelial staining Positive (3-4+), number of monkeys: 2
  Epithelial staining Positive (3-4+), percent of monkeys: (10%)
TGF beta-3 [4]
  Granulosa Cell staining Negative (0-2+), number of monkeys: 13
  Granulosa Cell staining Positive (3-4+), number of monkeys: 8
  Granulosa Cell staining Positive (3-4+), percent of monkeys: (38%)
TGF beta-3 [5]
  Oocyte cytoplasm staining Negative (0-2+), number of monkeys: 4
  Oocyte cytoplasm staining Positive (3-4+), number of monkeys: 17
  Oocyte cytoplasm staining Positive (3-4+), percent of monkeys: (81%)
TGF beta-3 [6]
  Endothelial staining Negative (0-2+), number of monkeys: 21
  Endothelial staining Positive (3-4+), number of monkeys: 5
  Endothelial staining Positive (3-4+), percent of monkeys: (23%)

## C=C1/C(=C\C=C2/CCC[C@]3(C)[C@@H]([C@H](C)/C=C/C=C/C(O)(CC)CC)CC[C@@H]23)C[C@@H](O)C[C@@H]1O [E1089]
TGF β3
  TGF β3 expression as compared to controls (in words): significant increase in TGF β3 expression
